Measured values as given in patent US20250049812A1, “Compounds that Inhibit Necroptosis and Their Preparation Methods” (SHANGHAI INSTITUTE OF ORGANIC CHEMISTRY, CHINESE ACADEMY OF …, priority 2021, published 2025).

test system: Jurkat FADD (−/−) Cells; assay: TNF-α induced necroptosis of Jurkat FADD-deficient cells (CellTiter-Glo cell survival); format: cell-based, human; conditions: Homo sapiens; TNF-α induced necroptosis, Jurkat FADD-deficient cells, 13 hours, CellTiter-Glo; read-out: IC50
Method: 1. Cell Activity Testing System (TNF-α Induces the Necroptosis of Jurkat Cells, the Human Leukemia Cells Deficient in FADD).
(1) Cell culture: Jurkat FADD-deficient cells were cultured in an RPMI 1640 medium with 10% fetal bovine serum (FBS), 100 U/mL penicillin, and 100 […]. The cells were cultured in a cell culture incubator at 37° C. with 5% CO2. And all the cells were cryopreserved in a complete medium containing 5-10% DMSO. Medium change and passage were performed 3-4 times per week.
(4) Experimental scheme: The system of TNF-α inducing the necroptosis of Jurkat FADD-deficient cells was used to screen for compounds with RIPKl kinase inhibitory activity.
Jurkat FADD-deficient cells were evenly inoculated into a 384-well plate with each well added with a 40 μL complete culture medium, followed by the addition of 5 μL of the under-testing compound to each well. The initial concentration of the compounds was set at 25 μM (for some compounds with higher activity, the initial concentration was set at 0.5 μM), with a three-fold gradient dilution, totaling 12 gradient points. Three replicate wells were set for each compound. In addition, there was a blank control group and a control group with TNFα stimulation only. After the compound was added, the mixture needed to be centrifuged and incubated in a cell culture incubator at 37° C. containing 5% CO2 for 1 hour. After that, 5 μL of 5 ng/mL TNFα was added to stimulate the occurrence of necroptosis. After centrifugation and mixing, the mixture was placed in the cell culture incubator for 13 hours (until the cell death rate reaches 65% in the group with only TNF-α), with a total volume of 50 μL per well. Then, the steps below were followed to test the cell survival rate.
The CellTiter-Glo® Buffer was removed from the reagent kit, equilibrated to room temperature, and used to dissolve the CellTiter-Glo® Substrate. The CellTiter-Glo® Reagent obtained could be directly used for the experiment.
15 μL of CellTiter-Glo® Reagent which has been equilibrated to room temperature was added to each well, and incubated in the dark for 15 minutes. After that, a microplate reader (Enspire Multimode Plate Reader of PerkinElmer, USA) was used to measure the chemiluminescence.

`CN1C(=O)C(NC(=O)c2nnc(Cc3ccccc3)[nH]2)Cc2cn(-c3ncccc3S(C)(=O)=O)c3cccc1c23` (racemic) [T-68, (±)-5-benzyl-N-(1-methyl-6-(3-(methylsulfonyl)pyridin-2-yl)-2-oxo-2,3,4,6-tetrahydro-1H-azepine [4,3,2-cd]indol-3-yl)-4H-1,2,4-triazole-3-carboxamide] and `CN1C(=O)C(NC(=O)c2nnc(Cc3ccccc3)[nH]2)Cc2cn(-c3ncccc3S(=O)(=O)C3CC3)c3cccc1c23` (racemic) [T-109, (±)-5-benzyl-N-(6-(3-(cyclopropylsulfonyl)pyridin-2-yl)-1-methyl-2-oxo-2,3,4,6-tetrahydro-1H-azacyclo [4,3,2-cd]indol-3-yl)-4H-1,2,4-triazole-3-carboxamide] cannot be ordered by IC50: less than 10 nM for the first, less than 10 nM for the second.

Compared with `CN1C(=O)C(NC(=O)c2nnc(Cc3ccccc3)[nH]2)Cc2cn(CC(=O)O)c3cccc1c23` (racemic) [T-30, (±)-2-(3-(5-benzyl-4H-1,2,4-triazole-3-carboxamide)-1-methyl-2-oxo-1,2,3,4-tetrahydro-6H-azacyclo [4,3,2-cd]indol-6-yl)acetic Acid], `CN1C(=O)C(NC(=O)c2nnc(Cc3ccccc3)[nH]2)Cc2cn(CC3CC3)c3cccc1c23` (racemic) [T-22, (±)-5-benzyl-N-(6-(cyclopropylmethyl)-1-methyl-2-oxo-2,3,4,6-tetrahydro-1H-azacyclo [4,3,2-cd]indol-3-yl)-4H-1,2,4-triazole-3-carboxamide] is lower in IC50: 100 to 1000 nM for the first, 10 to 100 nM for the second.

`CN1C(=O)C(NC(=O)c2nnc(Cc3ccccc3)[nH]2)Cc2cn(-c3cccnc3)c3cccc1c23` (racemic) [T-101, (±)-5-benzyl-N-(1-methyl-2-oxo-6-(pyridin-3-yl)-2,3,4,6-tetrahydro-1H-azacyclo [4,3,2-cd]indol-3-yl)-4H-1,2,4-triazole-3-carboxamide] and `CN1C(=O)C(NC(=O)c2nnc(Cc3ccccc3)[nH]2)Cc2cn(-c3ccccc3)c3cccc1c23` (racemic) [T-24, (±)-5-benzyl-N-(1-methyl-2-oxo-6-phenyl-2,3,4,6-tetrahydro-1H-azacyclo [4,3,2-cd]indol-3-yl)-4H-1,2,4-triazole-3-carboxamide] fall in the same range of IC50: 10 to 100 nM for the first, 10 to 100 nM for the second.

First: CN1C(=O)C(NC(=O)c2nnc(Cc3ccccc3)[nH]2)CN2CCc3cccc1c32 (racemic) [T-14, (±)-5-benzyl-N-(1-methyl-2-oxo-1,2,3,4,6,7-hexahydro-[1,4]diazepino [3,2,1-hi]indol-3-yl)-4H-1,2,4-triazole-3-carboxamide]
Second: CN1C(=O)C(NC(=O)c2nnc(Cc3ccccc3)[nH]2)Cn2ccc3cccc1c32 (racemic) [T-1, (±)-5-benzyl-N-(1-methyl-2-oxy-1,2,3,4-tetrahydro-[1,4]diazepino [3,2,1-hi]indol-3-yl)-4H-1,2,4-triazole-3-carboxamide]
The IC50 of the first is higher: 10 to 100 nM for the first, less than 10 nM for the second. The second is the more potent here.

`CN1C(=O)C(NC(=O)c2nnc(Cc3ccccc3)[nH]2)Cc2cn(-c3ncccc3C(F)F)c3cccc1c23` (racemic) [T-53, (±)-5-benzyl-N-(6-(3-(difluoromethyl)pyridin-2-yl)-1-methyl-2-oxo-2,3,4,6-tetrahydro-1H-azacyclo [4,3,2-cd]indol-3-yl)-4H-1,2,4-triazole-3-carboxamide] and `CN1C(=O)C(NC(=O)c2nnc(Cc3ccccc3)[nH]2)Cc2cn(-c3ncccc3Cl)c3cccc1c23` (racemic) [T-62, (±)-5-benzyl-N-(6-(3-chloropyridin-2-yl)-1-methyl-2-oxo-2,3,4,6-tetrahydro-1H-azacyclo [4,3,2-cd]indol-3-yl)-4H-1,2,4-triazole-3-carboxamide] cannot be ordered by IC50: less than 10 nM for the first, less than 10 nM for the second.

`CN1C(=O)C(NC(=O)c2nnc(Cc3ccccc3)[nH]2)Cc2cn(-c3ncccc3C(=O)OC3CC3)c3cccc1c23` (racemic) [T-66, (±)-2-(3-(5-benzyl-4H-1,2,4-triazole-3-carboxamide)-1-methyl-2-oxo-1,2,3,4-tetrahydro-6H-azacyclo [4,3,2-cd]indol-6-yl)nicotinic Acid Cyclopropane] and `CN1C(=O)C(NC(=O)c2nnc(Cc3ccccc3)[nH]2)Cc2cn(-c3ncccc3C3CC3)c3cccc1c23` (racemic) [T-52, (±)-5-benzyl-N-(6-(3-cyclopropylpyridin-2-yl)-1-methyl-2-oxo-2,3,4,6-tetrahydro-1H-azacyclo [4,3,2-cd]indol-3-yl)-4H-1,2,4-triazole-3-carboxamide] cannot be ordered by IC50: less than 10 nM for the first, less than 10 nM for the second.

`CN1C(=O)[C@@H](NC(=O)c2nnc(Cc3ccccc3)[nH]2)Cn2cc(-c3cnn(C(F)F)c3)c3cccc1c32` [T-115, (S)-5-benzyl-N-(7-(1-(difluoromethyl)-1H-pyrazol-4-yl)-1-methyl-2-oxo-1,2,3,4-tetrahydro-1,4-diazepine [3,2,1-hi]indol-3-yl)-4H-1,2,4-triazole-3-carboxamide] and `CN1C(=O)C(NC(=O)c2nnc(Cc3ccccc3)[nH]2)Cn2cc(I)c3cccc1c32` (racemic) [T-3, (±)-5-benzyl-N-(7-iodo-1-methyl-2-oxo-1,2,3,4-tetrahydro-[1,4]diazepino [3,2,1-hi]indol-3-yl)-4H-1,2,4-triazole-3-carboxamide] fall in the same range of IC50: 10 to 100 nM for the first, 10 to 100 nM for the second.

`CN1C(=O)C(NC(=O)c2nnc(Cc3ccccc3)[nH]2)Cc2c[nH]c3cc(C#Cc4cnn(C)c4)cc1c23` (racemic) [T-45, (±)-5-benzyl-N-(1-methyl-8-((1-methyl-1H-pyrazol-4-yl)ethynyl)-2-oxo-2,3,4,6-tetrahydro-1H-aza [4,3,2-cd]indol-3-yl)-4H-1,2,4-triazole-3-carboxamide] and `CN1C(=O)C(NC(=O)c2nnc(Cc3ccccc3)[nH]2)Cn2cc(-c3cc(C(F)(F)F)nn3C)c3cccc1c32` (racemic) [T-18, (±)-5-benzyl-N-(1-methyl-7-(1-methyl-3-(trifluoromethyl)-1H-pyrazol-5-yl)-2-oxo-1,2,3,4-tetrahydro-[1,4]diazepino [3,2,1-hi]indol-3-yl)-4H-1,2,4-triazole-3-carboxamide] cannot be ordered by IC50: less than 10 nM for the first, less than 10 nM for the second.

`CN1C(=O)C(NC(=O)c2nnc(Cc3ccccc3)[nH]2)Cc2cn(-c3ncccc3OC(F)(F)F)c3cccc1c23` (racemic) [T-105, (±)-5-benzyl-N-(1-methyl-2-oxo-6-(3-(trifluoromethoxy)pyridin-2-yl)-2,3,4,6-tetrahydro-1H-azacyclo [4,3,2-cd]indol-3-yl)-4H-1,2,4-triazole-3-carboxamide] and `CN1C(=O)C(NC(=O)c2nnc(Cc3ccccc3)[nH]2)Cc2cn(-c3ncccc3CC(F)(F)F)c3cccc1c23` (racemic) [T-97, (±)-5-benzyl-N-(1-methyl-2-oxo-6-(3-(2,2,2-trifluoroethyl)pyridin-2-yl)-2,3,4,6-tetrahydro-1H-azacyclo [4,3,2-cd]indol-3-yl)-4H-1,2,4-triazole-3-carboxamide] cannot be ordered by IC50: less than 10 nM for the first, less than 10 nM for the second.

Compared with `CCN1C(=O)C(NC(=O)c2nnc(Cc3ccccc3)[nH]2)Cn2ccc3cccc1c32` (racemic) [T-10, (±)-5-benzyl-N-(1-ethyl-2-oxy-1,2,3,4-tetrahydro-[1,4]diazepino [3,2,1-hi]indol-3-yl)-4H-1,2,4-triazole-3-carboxamide], `CCOC(=O)c1cc2cccc3c2n1CC(NC(=O)c1nnc(Cc2ccccc2)[nH]1)C(=O)N3C` (racemic) [T-12, (±)-3-(5-benzyl-4H-1,2,4-triazole-3-carboxamido)-1-methyl-2-oxy-1,2,3,4-tetrahydro-[1,4] diazepino [3,2,1-hi] indole-6-carboxylate] is higher in IC50: 10 to 100 nM for the first, 100 to 1000 nM for the second. The first is the more potent here.

First: CN1C(=O)C(NC(=O)c2cc(Oc3ccccc3)ccn2)Cc2cn(-c3ncccc3C(F)(F)F)c3cccc1c23 (racemic) [T-70, (±)-N-(1-methyl-2-oxo-6-(3-(trifluoromethyl)pyridin-2-yl)-2,3,4,6-tetrahydro-1H-azacyclo[4,3,2-cd]indol-3-yl)-4-phenoxy Pyridinamide]
Second: CN1C(=O)C(NC(=O)c2nnc(Cc3ccccc3)[nH]2)Cc2cn(-c3ncccc3P(C)(C)=O)c3cccc1c23 (racemic) [T-110, (±)-5-benzyl-N-(6-(3-(dimethylphosphoryl)pyridin-2-yl)-1-methyl-2-oxo-2,3,4,6-tetrahydro-1H-aza [4,3,2-cd]indol-3-yl)-4H-1,2,4-triazole-3-carboxamide]
The IC50 of the first is lower: less than 10 nM for the first, greater than 1000 nM for the second. The first is the more potent here.

For `COc1ccccc1-c1cn2c3c(cccc13)N(C)C(=O)C(NC(=O)c1nnc(Cc3ccccc3)[nH]1)C2` (racemic) [T-87, (±)-5-benzyl-N-(7-(2-methoxyphenyl)-1-methyl-2-oxo-1,2,3,4-tetrahydro-[1,4]diazepine [3,2,1-hi]indol-3-yl)-4H-1,2,4-triazole-3-carboxamide], the IC50 was 10 to 100 nM.

same assay, conditions: TNF-α induced necroptosis, Jurkat FADD-deficient cells, 13 hours, CellTiter-Glo; read-out: IC50

Work on `CN1C(=O)[C@@H](NC(=O)c2nnc(Cc3ccccc3)[nH]2)Cn2ccc3c(-c4c[nH]nc4C(F)(F)F)ccc1c32` [T-113, (S)-5-benzyl-N-(1-methyl-2-oxo-7-(3-(trifluoromethyl)-1H-pyrazol-4-yl)-1,2,3,4-tetrahydro-[1,4]diazepine [3,2,1-hi]indol-3-yl)-4H-1,2,4-triazole-3-carboxamide] yielded an IC50 of less than 10 nM.
